Patent US20200061087A1, “Inhibiting the Fungal Cell-Surface Phospate Transporter PHO84” (Children's Medical Center Corporation, priority 2017, published 2020)

Assays:
[1] = test system: human peripheral blood derived neutrophils incubated with C. albicans; type: cell-based; details: neutrophils pretreated with different concentrations of NAC (up to 10 mM); 90 min, M.O.I. 2; dose-dependent; FIG. 12D
Protocol: To examine whether in fact ROS are responsible for pho84−/− null cells' increased susceptibility to neutrophils' cidal activity, Candida-ingesting neutrophils were treated with the ROS-scavenging compound N-acetyl cysteine (NAC).

[2] = test system: C. albicans wild type (SC5314); test: Potentiation of antifungals, growth curves (OD600) in SC with 0.5 mM KH2PO4; type: cell-based, Candida albicans; details: 500 μM Fos plus 0.2 μg/ml amphotericin B; 8 mM PAA plus 0.25 μg/ml amphotericin B; 30° C.; FIG. 4C, 10D
Protocol: FIGS. 4A-4D depict data showing that small-molecule inhibition of Pho84 represses TORC1 and hyphal morphogenesis, and potentiates amphotericin B and micafungin antifungal activity. FIG. 4A depicts a Western blot of wild type (wt) (SC5314) cells with (1) vehicle, (2) 100 μM foscarnet (Fos), (3) 200 μM Fos, (4) 400 μM Fos, and strains (5, 7, 9, 11) PHO84+/+(JKC915), (6, 8) pho84−/+ (JKC1583) and (10, 12) pho84−/− (JKC1450), grown in standard SC (7.3 mM Pi) for 60 min, probed for P-S6 and tubulin. […] FIG. 4C depicts Wt (SC5314) exposed to vehicle, 500 μM Fos, 0.2 μg/ml amphotericin B, and amphotericin B plus Fos; OD600 in SC with 0.5 mM KH2PO4 at 30° C. monitored every 15 minutes. FIG. 4D depicts Wt (SC5314) exposed to vehicle, 500 μM Fos, 25 ng/ml micafungin, and micafungin plus Fos; OD600 in SC with 0.5 mM KH2PO4 at 30° C. monitored every 15 minutes.
FIGS. 10A-10D depict data showing that Foscarnet inhibits Pho84 in competition with Pi. Wild type PHO84/PHO84 (+/+, dark blue) (JKC915) and pho84/pho84 null (−/−, light blue) (JKC1450) cells were exposed to 1 and 4 mM PAA (FIG. 10A) or 200 and 400 μM foscarnet (FIG. 10B), and growth in SC medium with 0.22 mM or 11 mM KH2PO4 at 30° C. was monitored automatically every 15 minutes. […] OD600 was monitored automatically every 15 minutes. […]

[3] = test system: C. albicans wild type PHO84/PHO84 and pho84/pho84 null cells; test: Growth curves in liquid SC medium (OD600) during exposure to Pho84 inhibitors; type: cell-based, Candida albicans; details: wild type vs pho84−/− null; 1 and 4 mM PAA or 200 and 400 μM foscarnet; SC with 0.22 or 11 mM KH2PO4, 30° C.; FIG. 10A, B
Protocol: FIGS. 10A-10D depict data showing that Foscarnet inhibits Pho84 in competition with Pi. Wild type PHO84/PHO84 (+/+, dark blue) (JKC915) and pho84/pho84 null (−/−, light blue) (JKC1450) cells were exposed to 1 and 4 mM PAA (FIG. 10A) or 200 and 400 μM foscarnet (FIG. 10B), and growth in SC medium with 0.22 mM or 11 mM KH2PO4 at 30° C. was monitored automatically every 15 minutes. FIGS. 10A and 10B are representative of 3 biological replicates; error bars show SD. FIG. 10C depicts a filamentation assay: in order to maximize reproducibility between replicate experiments, cells of wild type strain SC5314 were suspended in 0.9% NaCl to an OD600 of 0.1; then 3 μl of the suspension was spotted at equidistant points, using a template, around a Spider agar plate containing vehicle or 500 μM foscarnet. Spot edges were imaged to show the length and density of filaments extending from the edge of the spot into the agar medium. Scale bar 1 mm. […] OD600 was monitored automatically every 15 minutes. […]
For cell dilutions spotted onto agar media as previously described (20), saturated overnight cultures were diluted in 5-fold steps from an OD600 of 0.5. […] For growth assays including those during drug exposure, OD600 readings were obtained every 15 min in a plate reader and standard deviations of 3 technical replicates were calculated and graphed in Graphpad Prism. […]

[4] = test system: TORC1 (Rps6 phosphorylation); test: Western blot for phosphorylated ribosomal protein S6 (P-S6) as readout of TORC1 activity; type: cell-based, Candida albicans; details: FIG. 4A
Protocol: FIGS. 4A-4D depict data showing that small-molecule inhibition of Pho84 represses TORC1 and hyphal morphogenesis, and potentiates amphotericin B and micafungin antifungal activity. FIG. 4A depicts a Western blot of wild type (wt) (SC5314) cells with (1) vehicle, (2) 100 μM foscarnet (Fos), (3) 200 μM Fos, (4) 400 μM Fos, and strains (5, 7, 9, 11) PHO84+/+(JKC915), (6, 8) pho84−/+ (JKC1583) and (10, 12) pho84−/− (JKC1450), grown in standard SC (7.3 mM Pi) for 60 min, probed for P-S6 and tubulin. FIG. 4B depicts Wt (SC5314) spotted at equidistant points around RPMI agar (0.22 mM KH2PO4, pH 7) containing vehicle, 8 mM phosphonoacetic acid (PAA), or 500 μM Fos, grown at 37° C., and spot edges imaged. Compare with FIG. 7A. Bar 1 mm. FIG. 4C depicts Wt (SC5314) exposed to vehicle, 500 μM Fos, 0.2 μg/ml amphotericin B, and amphotericin B plus Fos; OD600 in SC with 0.5 mM KH2PO4 at 30° C. monitored every 15 minutes. FIG. 4D depicts Wt (SC5314) exposed to vehicle, 500 μM Fos, 25 ng/ml micafungin, and micafungin plus Fos; OD600 in SC with 0.5 mM KH2PO4 at 30° C. monitored every 15 minutes.
Cell harvesting, lysis, Western blotting and densitometry were performed as described in Chowdhury T & Köhler JR (2015) Ribosomal protein S6 phosphorylation is controlled by TOR and modulated by PKA in Candida albicans. Molecular Microbiology 98(2):384-402. At least three biological replicates were obtained for each experiment shown.

[5] = test system: ROS content of wild type (SC5314) cells; test: DCFDA detectable ROS measurement; type: cell-based, Candida albicans; details: wild type cells unexposed to external oxidative stressors; 500 microM foscarnet or 1 mM PAA, 1 hour; FIG. 20C
Protocol: FIGS. 20A-20D depict data showing that TORC1 activity contributes to ROS management and Sod3 expression. FIG. 20A depicts dichlorodihydrofluorescein diacetate (DCFDA) detectable ROS measurement of strains, (1) PHO84/PHO84 containing vector (JKC1594), (2) pho84/pho84 containing vector (JKC1598), (3) PHO84/PHO84 overexpressing GTR1 (JKC1596), (4) pho84/pho84 overexpressing GTR1 (JKC1600). Cells cultured overnight in YPD were diluted into SC medium (Loflo) with vehicle or 8 ng/ml rapamycin for 1 hour, and fluorescence intensity was determined at excitation-485 nm and emission wavelength 528 nm after staining cells with 50 μM DCFDA. p=0.0252 for ratio of pho84−/− with vector and pho84−/− overexpressing GTR1 versus ratio of wild type with vector and wild type overexpressing GTR1; all cells exposed to vehicle. p=0.0014 for ratio of pho84−/− with vector and pho84−/− overexpressing GTR1 versus ratio of wild type with vector and wild type overexpressing GTR1; all cells exposed to rapamycin. p values calculated using Student's t-test. […] In FIG. 20C, wild type (SC5314) cells were exposed to vehicle, 500 microM foscarnet or 1 mM PAA for 1 hour, and fluorescence intensity was determined at excitation-485 nm and emission wavelength 528 nm after staining cells with 50 μM DCFH-DA. p<0.001 for both 500 microM foscarnet versus vehicle and 1 mM PAA versus vehicle. […]

[6] = test system: C. albicans wild type, pho84−/− null and reintegrant cells; test: Growth in YPD with oxidative stressors (OD600); type: cell-based, Candida albicans; details: 25 μM plumbagin, 40 μM menadione, 40 mM H2O2, FIG. 16A
Protocol: FIGS. 16A and 16B depict data showing that resistance to oxidative stressors is decreased, and Hog1 phosphorylation is increased in cells lacking PHO84. In FIG. 16A, overnight cultures were washed with normal saline and diluted to YPD with vehicle, 25 μM plumbagin, 40 μM menadione, and 40 mM H2O2 to OD600 0.1. OD600 was monitored every 15 minutes for strains +/+ (PHO84/PHO84), JKC915; −/− (pho84/pho84), JKC1450 and −/−/+(pho84/pho84::PHO84), JKC1588. FIG. 16B depicts a Western blot of cells incubated in YPD containing 5 mM H2O2 for 5 min, 10 min, 20 min, 30 min and 40 min. The membrane was probed for P-Hog1, total Hog1, and loading controls PSTAIRE and Histone H3. Strains, +/+ (PHO84/PHO84), JKC915; −/− (pho84/pho84), JKC1450 and −/−/+ (pho84/pho84::PHO84), JKC1588. FIGS. 16A and 16B show representatives of at least 3 biological replicates.
For cell dilutions spotted onto agar media as previously described (20), saturated overnight cultures were diluted in 5-fold steps from an OD600 of 0.5. For growth curves in liquid media, saturated overnight cultures in YPD were washed once in 0.9% NaCl and diluted to an OD600 of 0.15 in 150 μl medium in flat bottom 96-well dishes. For growth assays including those during drug exposure, OD600 readings were obtained every 15 min in a plate reader and standard deviations of 3 technical replicates were calculated and graphed in Graphpad Prism. Growth during drug exposure was assayed in SC medium. Vehicle for Pho84 inhibitors PAA (Sigma, 284270) and Fos (Santa Cruz Biotechnology, # SC-253593A) was water and for amphotericin B (Sigma, A9528), DMSO. All panels shown represent at least 3 biological replicates.

Row | Structure (SMILES) | Potentiation of amphotericin B antifungal activity [2] | C. albicans growth inhibition in dependence on Pho84 [3] | ROS content (DCFDA detectable) [5] | Growth inhibition of pho84−/− null mutant compared with wild type [6] | also measured
1 | CC(=O)N[C@@H](CS)C(=O)O [NAC, N-acetyl cysteine] | – | – | – | – | Hypersensitivity of pho84−/− null cells to neutrophil killing [1]: rescued hypersensitivity of pho84−/− null cells to neutrophil killing
2 | O=C(O)P(=O)(O)O [Fos, phosphonoformic acid] | potentiate activity of the antifungal amphotericin B | inhibit C. albicans growth in dependence on the presence of their target Pho84 | increased the ROS content of wild type cells | – | Rps6 phosphorylation (P-S6) ([4]; heterozygous pho84−/+ cells (JKC1583)): P-S6 was hypersensitive to Fos; Rps6 phosphorylation (P-S6) ([4]; pho84−/− cells lacking the target (JKC1450)): did not further decrease the P-S6 signal; Rps6 phosphorylation (P-S6) ([4]; wild type (SC5314) cells, 100, 200, 400 μM Fos, SC (7.3 mM Pi), 60 min): inhibited Rps6 phosphorylation (PS6) in a dose-dependent manner
3 | O=C(O)CP(=O)(O)O [PAA, phosphonoacetic acid] | potentiate activity of the antifungal amphotericin B | inhibit C. albicans growth in dependence on the presence of their target Pho84 | increased the ROS content of wild type cells | – | –
4 | OO [H2O2, hydrogen peroxide] | – | – | – | inhibited growth of the mutant more strongly than that of the wild type | –
5 | CC1=CC(=O)c2ccccc2C1=O [menadione] | – | – | – | inhibited growth of the mutant more strongly than that of the wild type | –
6 | CC1=CC(=O)c2c(O)cccc2C1=O [plumbagin] | – | – | – | inhibited growth of the mutant more strongly than that of the wild type | –
